Columns and labels:
[1] = tested on: S. aureus, S. epidermidis, E. coli, P. aeruginosa and C. albicans (all the strains tested); test: Antimicrobial activity, MIC by broth microdilution (Example 1); assay type: cell-based; details: mean over all strains tested; VitE diluted in hyaluronic acid; read after 24 hours at 37° C.
Experimental: The microbial strains utilized in this study were isolated from clinical samples collected from bone and soft tissue infections. In particular, strains of S. aureus, S. epidermidis, E. coli, P. aeruginosa and C. albicans were utilized. They were identified beforehand by means of biochemical assays and examined to assess their ability to produce biofilms, according to the spectrometric assay described by Christensen et al. (1985). The microorganisms were stored at −80° C. prior to the analysis. Prior to use, the strains were thawed and cultivated in an appropriate culture medium at 37° C. for 24 h. Antimicrobial activity was assessed by determining the minimum inhibitory concentration (MIC). MIC, defined as the lowest concentration of an antimicrobial substance that inhibits the visible growth of a microorganism, was determined using the broth microdilution method, in accordance with the guidelines of the European Committee on Antimicrobial Susceptibility Testing (EUCAST). […] VitE was diluted in hyaluronic acid (HA) at various concentrations, for which the growth checks were performed by inoculating the microbial suspension in BHI+HA. […] The assay was conducted in duplicate and repeated twice.

rats or mice = details: rat or mouse; cited from earlier work
S. epidermidis [2] = test: Anti-adhesion activity on coated titanium disks, CFU count (Example 3); assay type: cell-based, Staphylococcus epidermidis
Experimental: (§1) Sterile disks of sandblasted titanium with a diameter of 25 mm and a thickness of 5 mm (Adler Ortho, Cormano, Italy) were used as the substrate for the formation of biofilms. The disks were coated with sub-inhibitory concentrations of vitamin E acetate (5 mg/cm^2) or vitamin E phosphate (5 mg/cm^2). The concentrations were selected based on the MIC results. Uncoated disks were used as negative controls. The anti-adhesion activity of vitamin E was assessed against a representative strain for each species. An overnight bacteria culture was resuspended in Brain Heart Infusion Broth (BHI; Biomérieux) at a density of 1.0×10^7 CFU/ml for each strain, and 400 microliters of microbial suspension were inoculated on coated and uncoated disks. The test was performed in triplicate for each strain. After 30, 60 and 120 minutes of incubation, the disks were washed twice with a sterile saline solution to eliminate non-adherent bacteria. The disks were then immersed in 5 ml of a 0.1 w/v % dithiothreitol solution (DTT, Sigma-Aldrich, Milan, Italy) and mechanically stirred for 15 minutes at room temperature. Suitable dilutions of the fluids obtained were inoculated on Tryptic Soy Agar (TSA, Merck) and incubated at 37° C. in an aerobic atmosphere for 24 hours for the CFU count.

S. epidermidis [3] = test: MIC and MBC, broth microdilution (Example 3); assay type: cell-based, Staphylococcus epidermidis
Excerpt: (§2) This study used clinically relevant strains isolated from patients with prosthetic joint infections at the Microbiology Laboratory of the IRCCS Galeazzi Orthopaedic institute (Italy). In particular, the following were selected: strains of methicillin-resistant Staphylococcus epidermidis, of methicillin-resistant Staphylococcus aureus and of Pseudomonas aeruginosa. These strains were identified beforehand by means of biochemical assays (VITEK® 2 Compact, bioMérieux, Marcy l'Etoile, France) and stored at −80° C. prior to the analysis. Before beginning the study, all strains were screened to assess their ability to produce biofilms, according to the spectrophotometric assay described by Christensen et al. (J Clin Microbiol 1985; 22: 996-1006).
(§3) The bacteriostatic and bactericidal activity of vitamin E acetate and vitamin E phosphate against the above-mentioned bacterial strains was assessed by measuring the minimum inhibitory concentration (MIC) and the minimum bactericidal concentration (MBC). MIC, defined as the lowest concentration capable of inhibiting bacterial growth, was determined using the broth microdilution method according to EUCAST guidelines (http://www.eucast.org/clinical_breakpoints/).
(§4) In short, a suspension in Brain Heart Infusion Broth (BHI; Biomérieux, Marci l'Etoile, France) was prepared for each bacterial strain, with an optical density of 0.5 McFarland (1.5×10^8 CFU/ml). The P. acnes broth was supplemented with 5% defibrinated sheep blood (Liofilchem, Roseto degli Abruzzi, Italy). After a concentration of 10^5 UFC/ml was obtained using appropriate dilutions, each suspension was inoculated in a 96-well microtitre plate containing a two-fold serial dilution of vitamin E acetate (VitE-Ac) and vitamin E phosphate. The controls were performed by inoculating bacterial suspensions in BHI alone. […] After incubation at adequate conditions, MBC was read as the lowest concentration capable of killing 99.9% of the initial inoculum.

P. acnes = test: MIC and MBC, broth microdilution (Example 3); assay type: cell-based
Experimental: as §4, with “MIC, defined as the lowest concentration capable of inhibiting bacterial growth, was determined using the broth microdilution method according to EUCAST guidelines (http://www.eucast.org/clinical_breakpoints/). In short,” for “In short,”, “Infusion Broth ([…], France) was” for “Infusion Broth (BHI; Biomérieux, Marci l'Etoile, France) was”, “sheep blood ([…] Abruzzi, Italy).” for “sheep blood (Liofilchem, Roseto degli Abruzzi, Italy).”

S. aureus [4] = test: Anti-adhesion activity on coated titanium disks, CFU count (Example 3); assay type: cell-based, Staphylococcus aureus
Experimental: as §1

P. aeruginosa [5] = test: as above; assay type: cell-based, Pseudomonas aeruginosa
Experimental: as §1

S. aureus [6] = test: Anti-biofilm activity on coated titanium disks, CFU count (Example 3); assay type: cell-based, Staphylococcus aureus; details: 48 hours, 5 mg/cm^2 coating
Experimental: Coated and uncoated titanium disks were prepared as described above and utilized as the substrate for the formation of biofilms. Subsequently, an overnight bacteria culture was resuspended in Brain Heart Infusion Broth (BHI; Biomérieux) at a density of 1.5×10^8 CFU/ml for each strain, and 200 microliters of microbial suspension were inoculated in sterile polystyrene plates with 6 wells containing coated and uncoated disks and 4.8 ml of BHI. The plates were incubated at 37° C. in an aerobic atmosphere for 24 and 48 hours. The test was performed in triplicate for each strain.
At the end of the biofilm incubation time, the disks were treated as described above and the detached cells of the biofilm were inoculated on Tryptic Soy Agar and incubated at 37° C. in an aerobic atmosphere for 24 hours for the CFU count.

P. aeruginosa [7] = test: MIC and MBC, broth microdilution (Example 3); assay type: cell-based, Pseudomonas aeruginosa
Excerpt: as §2, §3, §4

S. aureus [8] = test: MIC and MBC, broth microdilution (Example 3); assay type: cell-based, Staphylococcus aureus
Excerpt: as §2, §3, §4

[9] = 5 mg/cm^2 coating, 30, 60 and 120 minutes
[10] = 5 mg/cm^2 coating, range over 30, 60 and 120 minutes

vitamin E
mean MIC value [1]: 2.5%
LD50 (rats or mice): 4000 mg of vitamin E/kg

Cc1c(C)c2c(c(C)c1OP(=O)([O-])[O-])CC[C@@](C)(CCC[C@H](C)CCC[C@H](C)CCCC(C)C)O2.[Na+].[Na+] [Vitamin E phosphate, α-tocopherol phosphate disodium salt]
decrease in adhesion (in words) (S. epidermidis [2]; [9]): significant decrease
inhibition of adhesion with respect to the control (S. epidermidis [2]; [10]): 84-95%
bactericidal at the concentrations tested (in words) (S. epidermidis [3]; S. epidermidis): bactericidal
MIC range (S. epidermidis [3]; S. epidermidis strains, 24 hours): 3.13 to 100 mg/mL
MBC range (S. epidermidis [3]; S. epidermidis strains, kills 99.9% of the initial inoculum): 25 to 100 mg/mL
bactericidal at the concentrations tested (in words) (P. acnes): bactericidal
MIC range (P. acnes; 48 hours, broth with 5% defibrinated sheep blood): 1.56 to 6.25 mg/mL
MBC range (P. acnes; kills 99.9% of the initial inoculum): 31.25 to 50 mg/mL
decrease in adhesion (in words) (S. aureus [4]; [9]): significant decrease
inhibition of adhesion with respect to the control (S. aureus [4]; [10]): 60-78%
decrease in adhesion (in words) (P. aeruginosa [5]; [9]): significant decrease for all the strains tested, with the exception of the last time period tested for P. aeruginosa
inhibition of adhesion with respect to the control (P. aeruginosa [5]; [10]): 7-65%
biofilm reduction with respect to the controls (in words) (S. aureus [6]): significantly inhibited
bactericidal at the concentrations tested (in words) (P. aeruginosa [7]; P. aeruginosa): not against P. aeruginosa
MIC range (P. aeruginosa [7]; P. aeruginosa strains, 24 hours): 100 to 200 mg/mL
MBC range (P. aeruginosa [7]; P. aeruginosa strains, kills 99.9% of the initial inoculum): >200 mg/mL
bactericidal at the concentrations tested (in words) (S. aureus [8]; S. aureus): bactericidal
MIC range (S. aureus [8]; S. aureus strains, 24 hours): 25 to 100 mg/mL
MBC range (S. aureus [8]; S. aureus strains, kills 99.9% of the initial inoculum): 25 to 200 mg/mL
